Measured values reported in patent US9115059B2, “Oxime derivatives of 3,5-seco-4-nor-cholestane, pharmaceutical compositions containing same, and method for preparing same” (TROPHOS, priority 2008, dated 2015).

How the values were obtained:
motoneurons = assay: Survival of motoneurons under trophic deprivation in vitro (calcein fluorescence); type: cell-based; details: E14 rat motoneurons, 3 days of culture in Neurobasal medium without trophic factors
Source text: It may be useful to refer to patent application WO 0142784 of the applicant regarding culture of the motoneurons of the spinal cord.
The spinal cord of E14 rat embryos is dissected and the ventral part is dissociated by trituration after trypsinization.
The motoneurons are separated from the other spinal cells by a known method (Camu et al., 1993, Purification of spinal motoneurons from chicken and rat embryos by immunopanning. In “Immunoselection Strategies for Neural cell culture”, Neuroprotocols: A companion to Methods in Neurosciences 2, 191-199; Henderson et al., 1993, Neutrophins promote motoneuron survival and are present in embryonic limb bud. Nature 363 (6426):266-70).
The cells are centrifuged on a density gradient. The motoneurons are enriched in the fraction of large cells (the […]). The cells of this fraction are incubated with an anti-p75 antibody, a surface antigen present on motoneurons.
Secondary antibodies coupled to magnetic beads are added and the mixture of cells is passed through a column in a magnet (Arce et al., 1999 Cardiotrophin-1 requires LIFRbeta to promote survival of mouse motoneurons purified by a novel technique. J. Neurosci Res 55(1): 119-26). Only the motoneurons are retained: their purity is of the order of 90%.
The motoneurons are seeded at low density in culture wells on a polyornithine-laminin substrate in a Neurobasal medium (GIBCO) supplemented according to Raoul et al., 1999, Programmed cell death of embryonic motoneurons triggered through the Fas death receptor. J Cell Biol 147(5):1049-62.
Negative controls (absence of trophic factors) and positive controls (in the presence of BDNF (Brain-Derived Neurotrophic Factor) at 1 ng/ml, GDNF (Glial-Derived Neurotrophic Factor) at 1 ng/ml and CNTF (Ciliary Neurotrophic Factor) at 10 ng/ml, marketed by the American company PEPROTECH, Inc. and the company Sigma-Aldrich, are included in each series.
The test compounds are added 60 minutes after seeding and the cultures are kept at 37° C. under 5% CO2 for 3 days.
The motoneurons have a spontaneous tendency to die in the absence of neurotrophic factors (Pettmann and Henderson, 1998, Neuronal cell death. Neuron 20(4):633-47). After 3 days, survival is evaluated by measurement of fluorescence after incubation of the cells in the presence of calcein, which becomes fluorescent in living cells.
After 3 days of culture at 37° C., under 5% CO2 and at saturating humidity, up to 50% of the motoneurons seeded initially survive in the medium supplemented with neurotrophic factors, whereas less than 15% of the motoneurons survive in the culture medium without addition of neurotrophic factors.
The neuroprotective activity of the test compounds was evaluated by their capacity for preventing death of motoneurons when they are added to the Neurobasal medium (GIBCO) in comparison with the survival of motoneurons in the medium to which neurotrophic factors were added.
This survival rate is expressed by the number of living cells after treatment with the test compound relative to the survival induced by the neurotrophic factors. This ratio can therefore represent the percentage survival due to the compound tested relative to the survival induced by the neurotrophic factors. If the ratio is greater than 0, the compounds have a positive effect on survival of the motoneurons.

[1] = test system: avidins (streptavidin or neutravidin); details: cited from earlier work

| Compound | Ratio (living cells after treatment with the test compound relative to the survival induced by the neurotrophic factors) (motoneurons; concentration 1 μM) | further results |
| --- | --- | --- |
| CC(C)CCCC(C)C1CCC2C3C=CC(=NO)C(C)(CCCO)C3CCC12C (stereo not drawn) [Compound 8, 4-nor-3,5-secocholest-6-en-3-ol-5-one oxime] | >0.2 | – |
| 7-hydroxyamino-4-nor-3,5-secocholest-6-year-3-ol-5-one oxime [Compound 9] | >0.2 | – |
| O=C(O)CCCC[C@@H]1SC[C@@H]2NC(=O)N[C@@H]21 [biotin] | – | Ka (affinity of avidins for biotin) [1]: ~10^7 M |
| CC(CCCC(C)(C)F)C1CCC2C3CCC(=NO)C(C)(CCCO)C3CCC12C (stereo not drawn) [Compound 6, 25-fluoro-4-nor-3,5-secocholestan-3-ol-5-one oxime] | – | Ratio (living cells after treatment with the test compound relative to the survival induced by the neurotrophic factors) (motoneurons; concentration 3 μM): >0.2 |
| CC(C)CCCC(C)C1CCC2C3CCC(=NO)C(C)(CCC(O)C(F)(F)F)C3CCC12C (stereo not drawn) [Compound 3, 4-nor-3,5-seco-3-(trifluoromethyl)cholestan-3-ol-5-one oxime] | >0.2 | – |
| CC(CCCC(C)(C)O)C1CCC2C3CCC(=NO)C(C)(CCCO)C3CCC12C (stereo not drawn) [Compound 2, 4-nor-3,5-secocholestan-3,25-diol-5-one oxime] | – | Ratio (living cells after treatment with the test compound relative to the survival induced by the neurotrophic factors) (motoneurons; concentration 3 μM): >0.2 |
| CC(C)CCC[C@@H](C)[C@H]1CCC2C3CC/C(=N/O)[C@](C)(CCCN(C)C(=O)CCCC[C@@H]4SC[C@@H]5NC(=O)N[C@@H]54)C3CC[C@@]21C (stereo partly drawn) [Compound 4, 3-[(N-(+)-biotinoyl-N-methyl)amino]-4-nor-3,5-secocholestan-5-one oxime] | – | Ratio (living cells after treatment with the test compound relative to the survival induced by the neurotrophic factors) (motoneurons; concentration 0.3 μM): >0.2 |
| CC(C)CCC[C@@H](C)[C@H]1CCC2C3CC/C(=N/O)[C@](C)(CCCN(C)c4ccc([N+](=O)[O-])c5nonc45)C3CC[C@@]21C (stereo partly drawn) [Compound 5, 3-[methyl-(7-nitro-2,1,3-benzoxadiazol-4-yl)amino]-4-nor-3,5-secocholestan-5-one oxime] | >0.2 | – |
| CC(C)CCCC(C)C1CCC2C3CCC(=NO)C(C)(CCO)C3CCC12C (stereo not drawn) [Compound 10, 3,4-dinor-2,5-secocholestan-2-ol-5-one oxime] | >0.2 | – |
| CC(C)=CCCC(C)C1CCC2C3CCC(=NO)C(C)(CCCO)C3CCC12C (stereo not drawn) [Compound 11, 4-nor-3,5-secocholest-24-en-3-ol-5-one oxime] | >0.2 | – |
| CCCC1(C)C(=NO)CCC2C1CCC1(C)C(C(C)CCCC(C)C)CCC21 (stereo not drawn) [Compound 7, 4-nor-3,5-secocholestan-5-one oxime] | >0.2 | – |
| CCC(C=CC(C)C1CCC2C3CCC(=NO)C(C)(CCCO)C3CCC12C)C(C)C (stereo not drawn) [Compound 12, 24β-ethyl-4-nor-3,5-secocholest-22-en-3-ol-5-one oxime] | >0.2 | – |
